The source of these data is BindingDB's records for PubMed 35973549 (Pharmaxis, 2022).

Each structure is given as a SMILES string. pIC50: −log10 of the molar value.

This assay is described as follows: Inhibition of recombinant human SSAO.

Turning to `NCC(=CF)COc1ccccc1`, the pIC50 was 8.22.

As to `NC/C(=C\F)COc1ccccc1`, the negative logarithm of the IC50 (pIC50) was 7.72.

Take `Cc1ccccc1OC/C(=C/F)CN`: the negative-log IC50 (pIC50) is 6.54.

The term pIC50 denotes the negative decadic logarithm of the IC50, by convention in mol/L.
